From ChEMBL document CHEMBL4396870, “Pharmacological Chaperones for the Treatment of α-Mannosidosis” (J Med Chem, 2019)
Changes are numbered by the printed parent chain.

Columns and labels:
[1] = test system: T1, Lysosomal alpha-mannosidase (Homo sapiens), O00754 [L565P]; assay: Chaperone activity at human Lysosomal alpha-mannosidase L565P mutant transfected in human […] knockout HAP1 cells assessed as enzyme activity enhancement at 20 uM incubated for 96 hrs relative to control
T1 sequence (whole entry): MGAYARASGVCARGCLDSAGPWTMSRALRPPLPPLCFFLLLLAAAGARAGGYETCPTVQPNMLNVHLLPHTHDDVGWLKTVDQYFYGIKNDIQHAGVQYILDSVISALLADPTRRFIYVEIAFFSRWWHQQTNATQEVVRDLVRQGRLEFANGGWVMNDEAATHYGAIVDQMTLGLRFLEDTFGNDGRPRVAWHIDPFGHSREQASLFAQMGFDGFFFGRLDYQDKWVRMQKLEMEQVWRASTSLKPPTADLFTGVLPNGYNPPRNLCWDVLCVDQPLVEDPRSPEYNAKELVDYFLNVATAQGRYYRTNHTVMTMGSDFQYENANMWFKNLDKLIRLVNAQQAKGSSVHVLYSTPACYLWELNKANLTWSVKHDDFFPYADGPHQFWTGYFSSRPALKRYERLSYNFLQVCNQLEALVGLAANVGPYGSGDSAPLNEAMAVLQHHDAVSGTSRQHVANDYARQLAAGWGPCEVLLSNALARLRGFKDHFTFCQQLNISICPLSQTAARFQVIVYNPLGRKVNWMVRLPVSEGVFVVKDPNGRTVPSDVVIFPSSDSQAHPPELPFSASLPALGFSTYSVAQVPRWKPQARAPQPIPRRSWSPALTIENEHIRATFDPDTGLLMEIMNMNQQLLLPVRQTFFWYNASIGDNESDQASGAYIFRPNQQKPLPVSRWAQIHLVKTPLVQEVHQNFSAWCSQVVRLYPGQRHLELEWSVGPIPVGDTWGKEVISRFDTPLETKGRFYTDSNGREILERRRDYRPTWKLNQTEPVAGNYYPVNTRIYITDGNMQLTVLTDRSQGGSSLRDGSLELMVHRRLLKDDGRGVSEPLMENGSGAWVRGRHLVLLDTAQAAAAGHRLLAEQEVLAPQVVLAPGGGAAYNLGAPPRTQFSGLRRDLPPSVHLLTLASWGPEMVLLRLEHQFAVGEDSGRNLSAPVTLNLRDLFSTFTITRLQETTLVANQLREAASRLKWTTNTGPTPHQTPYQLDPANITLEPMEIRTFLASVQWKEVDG

[2] = test system: T2, Lysosomal alpha-mannosidase (Homo sapiens), O00754 [R916C]; assay: Chaperone activity at human Lysosomal alpha-mannosidase R916C mutant transfected in human […] knockout HAP1 cells assessed as enzyme activity enhancement at 0.2 uM incubated for 96 hrs relative to control
T2 sequence (whole entry): T1 sequence (whole entry) with P565L, R916C

Activity [1] | Activity [2] | SMILES
0% | 45% | COC[C@H]1O[C@@H]2O[C@H]3[C@H](OC)[C@@H](OC)[C@@H](O[C@H]4[C@H](OC)[C@@H](OC)[C@@H](O[C@H]5[C@H](OC)[C@@H](OC)[C@@H](O[C@H]6[C@H](OC)[C@@H](OC)[C@@H](O[C@H]7[C@H](OC)[C@@H](OC)[C@@H](O[C@H]8[C@H](OC)[C@@H](OC)[C@@H](O[C@H]1[C@H](OC)[C@H]2OC)O[C@@H]8COC)O[C@@H]7COC)O[C@@H]6COC)O[C@@H]5COCc1cn(CCCCCCN[C@@H]2[C@@H](O)[C@@H](O)[C@H](O)[C@H]5COC(=O)N52)nn1)O[C@@H]4COC)O[C@@H]3COC
5% | 8% | CC(C)(C)OC(=O)NCCCCCCCCCN[C@@H]1[C@@H](O)[C@@H](O)[C@H](O)[C@H]2COC(=O)N21
